ChEMBL document CHEMBL1144315, “Three-dimensional quantitative structure (3-D QSAR) activity relationship studies on imidazolyl and N-pyrrolyl heptenoates as 3-hydroxy-3-methylglutaryl-CoA reductase (HMGR) inhibitors by comparative molecular similarity indices analysis (CoMSIA)” (Bioorg Med Chem Lett, 2005)

target: T1, 3-hydroxy-3-methylglutaryl-coenzyme A reductase (Homo sapiens, UniProt P04035); assay: Inhibitory concentration against 3-hydroxy-3-methylglutaryl-CoA reductase
T1 sequence (P04035 whole entry): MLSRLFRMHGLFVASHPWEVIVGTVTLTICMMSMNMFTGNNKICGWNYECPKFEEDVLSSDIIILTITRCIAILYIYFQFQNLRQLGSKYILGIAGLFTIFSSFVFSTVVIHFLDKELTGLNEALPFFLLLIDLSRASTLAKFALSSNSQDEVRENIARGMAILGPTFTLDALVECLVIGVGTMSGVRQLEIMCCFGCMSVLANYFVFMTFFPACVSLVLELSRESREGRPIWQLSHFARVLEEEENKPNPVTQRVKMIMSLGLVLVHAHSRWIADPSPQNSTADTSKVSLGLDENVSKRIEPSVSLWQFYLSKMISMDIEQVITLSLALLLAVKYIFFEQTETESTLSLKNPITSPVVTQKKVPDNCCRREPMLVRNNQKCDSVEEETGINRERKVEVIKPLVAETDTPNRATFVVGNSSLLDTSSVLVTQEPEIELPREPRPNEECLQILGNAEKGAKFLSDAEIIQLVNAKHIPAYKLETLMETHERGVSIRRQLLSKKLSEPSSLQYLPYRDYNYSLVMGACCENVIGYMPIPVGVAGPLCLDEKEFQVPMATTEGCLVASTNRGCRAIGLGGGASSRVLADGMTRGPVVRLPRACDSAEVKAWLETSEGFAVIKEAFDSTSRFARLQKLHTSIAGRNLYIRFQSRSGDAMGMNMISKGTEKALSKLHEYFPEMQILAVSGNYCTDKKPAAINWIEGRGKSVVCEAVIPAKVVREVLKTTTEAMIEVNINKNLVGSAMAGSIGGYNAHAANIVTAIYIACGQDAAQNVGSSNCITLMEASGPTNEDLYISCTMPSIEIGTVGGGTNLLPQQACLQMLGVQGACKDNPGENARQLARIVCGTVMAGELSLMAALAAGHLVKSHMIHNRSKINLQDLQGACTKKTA

| IC50 [nM] | Compound |
| --- | --- |
| 7.89 | O=C(O)C[C@H](O)C[C@H](O)/C=C/n1c(C(F)(F)F)nc(-c2ccc(F)cc2)c1-c1ccc(F)cc1 |
| 7.25 | Cc1cc(C)cc(-c2c(-c3ccc(F)cc3)nc(C(C)C)n2/C=C/[C@@H](O)C[C@@H](O)CC(=O)O)c1 |
| 8.7 | CC(C)c1nc(-c2cccc(S(C)(=O)=O)c2)c(-c2ccc(F)cc2)n1/C=C/[C@@H](O)C[C@@H](O)CC(=O)O |
| 9.52 | CC(C)c1c(Br)c(-c2ccc(F)cc2)c(-c2ccc(F)cc2)n1/C=C/[C@@H](O)C[C@@H](O)CC(=O)O |
| < 7 | Cc1nc(-c2ccc(F)cc2)c(-c2ccc(F)cc2)n1/C=C/[C@@H](O)C[C@@H](O)CC(=O)O |
| 8.4 | Cc1cc(F)ccc1-c1c(-c2ccc(F)cc2)nc(C(C)C)n1/C=C/[C@@H](O)C[C@@H](O)CC(=O)O |
| 7.6 | CC(C)c1cc(-c2ccc(F)cc2)c(-c2ccccc2)n1/C=C/[C@@H](O)C[C@@H](O)CC(=O)O |
| 8.52 | CNc1cccc(-c2nc(C(C)C)n(/C=C/[C@@H](O)C[C@@H](O)CC(=O)O)c2-c2ccc(F)cc2)c1 |
| 8.15 | CC(C)(C)c1nc(-c2ccc(F)cc2)c(-c2ccc(F)cc2)n1/C=C/[C@@H](O)C[C@@H](O)CC(=O)O |
| 8.7 | CC(C)c1cc(-c2ccccc2)c(-c2ccc(F)cc2)n1/C=C/[C@@H](O)C[C@@H](O)CC(=O)O |
| 7.52 | Cc1cc(-c2c(-c3ccc(F)cc3)nc(C(C)C)n2/C=C/[C@@H](O)C[C@@H](O)CC(=O)O)cc(C)c1F |
| 7.15 | CC(C)c1cc(-c2ccc(F)cc2)c(-c2cccc(Cl)c2)n1/C=C/[C@@H](O)C[C@@H](O)CC(=O)O |
| 8.04 | CN(C)c1nc(-c2ccc(F)cc2)c(-c2ccc(F)cc2)n1/C=C/[C@@H](O)C[C@@H](O)CC(=O)O |
| 7 | CCc1cc(-c2c(-c3ccc(F)cc3)nc(C(C)C)n2/C=C/[C@@H](O)C[C@@H](O)CC(=O)O)cc(CC)c1F |
| 8.7 | CC(C)c1cc(-c2cccc(Cl)c2)c(-c2ccc(F)cc2)n1/C=C/[C@@H](O)C[C@@H](O)CC(=O)O |
| 7.16 | CC(C)c1cc(-c2ccc(F)cc2)c(-c2cccc(Br)c2)n1/C=C/[C@@H](O)C[C@@H](O)CC(=O)O |

| IC50 [nM] | Compound |
| --- | --- |
| 9 | CC(C)c1c(-c2ccc(F)cc2)nc(-c2ccc(F)cc2)n1/C=C/[C@@H](O)C[C@@H](O)CC(=O)O |
| 8.7 | Cc1cc(-c2nc(C(C)C)n(/C=C/[C@@H](O)C[C@@H](O)CC(=O)O)c2-c2ccc(F)cc2)cc(C)c1Cl |
| 9.3 | CC(C)c1cc(-c2cccc(Br)c2)c(-c2ccc(F)cc2)n1/C=C/[C@@H](O)C[C@@H](O)CC(=O)O |
| 6.15 | CC(C)c1nc(-c2ccc(F)cc2)c(-c2ccc(F)cc2)n1/C=C/[C@H](O)C[C@H](O)CC(=O)O |
| 8.1 | CC(C)c1nc(-c2ccc(F)cc2)c(-c2cccc(Cl)c2)n1/C=C/[C@@H](O)C[C@@H](O)CC(=O)O |
| 8.3 | CC(C)c1cc(-c2ccncc2)c(-c2ccc(F)cc2)n1/C=C/[C@@H](O)C[C@@H](O)CC(=O)O |
| 9 | CC(C)c1nc(-c2cccnc2)c(-c2ccc(F)cc2)n1/C=C/[C@@H](O)C[C@@H](O)CC(=O)O |
| 5.7 | CC(C)c1nc(-c2ccc(F)cc2)c(-c2ccc(F)cc2)n1/C=C/[C@H](O)C[C@@H](O)CC(=O)O |
| 7.66 | CC(C)c1nc(-c2ccc(F)cc2)c(-c2cc(Cl)cc(Cl)c2)n1/C=C/[C@@H](O)C[C@@H](O)CC(=O)O |
| 8.7 | CC(C)c1cc(-c2ccccn2)c(-c2ccc(F)cc2)n1/C=C/[C@@H](O)C[C@@H](O)CC(=O)O |
| 9 | CC(C)c1nc(-c2ccc(F)cc2)c(-c2ccc(F)cc2)n1/C=C/[C@@H](O)C[C@@H](O)CC(=O)O |
| 8.7 | CC(C)c1cc(-c2ccc(F)cc2)c(-c2ccc(F)cc2)n1/C=C/[C@@H](O)C[C@@H](O)CC(=O)O (stereo in doubt; 19) |
| 6.98 | CC(C)c1cc(-c2ccc(F)cc2)c(-c2ccc(F)cc2)n1/C=C/[C@@H](O)C[C@@H](O)CC(=O)O (stereo in doubt; 29) |
| 10 | COCc1c(C(C)C)nc(C(C)C)c(/C=C/[C@@H](O)C[C@@H](O)CC(=O)O)c1-c1ccc(F)cc1 [CERIVASTATIN] |
| 23 | CC[C@H](C)C(=O)O[C@H]1CCC=C2C=C[C@H](C)[C@H](CC[C@@H]3C[C@@H](O)CC(=O)O3)[C@H]21 [MEVASTATIN] |
| 5 | CC(C)c1nc(N(C)S(C)(=O)=O)nc(-c2ccc(F)cc2)c1/C=C/[C@@H](O)C[C@@H](O)CC(=O)O [ROSUVASTATIN] |

| Compound | IC50 [nM] |
| --- | --- |
| CC(C)n1c(/C=C/C(O)CC(O)CC(=O)O)c(-c2ccc(F)cc2)c2ccccc21 (stereo not drawn) [FLUVASTATIN] | 28 |
